The source of these data is US9414998B2, “Preventing or ameliorating agent for pigmentation” (Pola Chemical Industries Inc., priority 2009, dated 2016).

The subject of one assay is normal human melanocyte. Put plainly: Ultraviolet B (UVB)-induced activation inhibition test using normal human melanocyte (MTT, supernatant of UVB-irradiated keratinocytes). Conditions: light or radiation study, UVB 5 mJ/cm^2, compound 100 mM in DMSO diluted 1,000 times, formazan production ratio, DMSO negative control irradiated with UVB = 100, average of three measurements, read-out: Melanocyte proliferation ratio Average (%). It counts as cell-based. The method, then:
The suppressing effect of each of the compounds, which was exerted on the activation of melanocyte by the melanocyte activating factor produced and released from normal human keratinocyte by the ultraviolet B (UVB), was investigated by using the index of the cell proliferation function of normal human melanocyte.
Normal human keratinocyte cells (Kurabo Industries, Ltd.) were seeded by using Humedia-KG2 medium (Kurabo Industries, Ltd.) at a concentration of 10×10^4 cells/well in 24-well plate, followed by being cultured for 24 hours.
The compound to be evaluated was dissolved at a concentration of 100 mM in DMSO, which was diluted 1,000 times with Humedia-KG2 medium and used as a sample solution. As for the positive control group, tranexamic acid was dissolved at a concentration of 100 mM in DMSO, which was diluted 1,000 times with Humedia-KG2 medium and used as a positive control sample solution. As for the negative control group, DMSO was diluted 1,000 times with Humedia-KG2 medium, which was used as a negative control sample solution. A concentration, at which the cell proliferation of normal human melanocyte was not affected, was set for each of the compounds.
The medium of normal human keratinocyte was exchanged with Humedia-KG2 medium (sample solution) containing the compound at a predetermined concentration, and the cells were cultured for further 24 hours. After that, the medium was exchanged with PBS (phosphate buffered saline), and cells were irradiated with the ultraviolet B (UVB) at 5 mJ/cm^2 by using an ultraviolet lamp (FL20S•E-30/DMR, Toshiba Medical Supply Co., Ltd.) as a light source. After the ultraviolet radiation, PBS was exchanged with the sample solution. Cells were cultured for further 24 hours, and then the culture supernatant was collected.
Normal human melanocyte cells were seeded to 96-well plate by using a medium of Medium 254 (Kurabo Industries, Ltd.) so that the concentration was 3×10^4 cells/well, and the cultivation was performed for 24 hours. After that, the medium was exchanged with the culture supernatant collected from normal human keratinocyte, and the cells were cultured for further 24 hours. After the cultivation for 24 hours, the medium was exchanged with Humedia-KG2 medium containing 0.5 mg/mL of 3-(4,5-dimethyl-2-thiazoyl)-2,5-diphenyl-2H-tetrazolium bromide (MTT), and the cultivation was performed for 3 hours.
The formazan amount was determined by measuring the absorbances at 570 nm and 690 nm of cell lysate prepared with 2-propanol by means of a microplate reader (Benchmark Plus, Bio-Rad) and subtracting the absorbance at 690 nm from the absorbance at 570 nm.
The suppressing effect of each of the compounds on the melanocyte proliferation was represented by the percentage (%) as the formazan production ratio while the absorbance of the DMSO added group (negative control group) irradiated with the ultraviolet B (UVB) was assumed as 100.
It can be judged that the lower the production ratio of formazan is, the lower the melanocyte proliferation ratio is. Therefore, when the production ratio of formazan is lower, it is possible to judge that the suppressing activity of the compound to be evaluated is high with respect to the activation of melanocyte by the melanocyte activating factor produced and released by normal human keratinocyte.
With `O=C(N[C@@H](CO)C(=O)O)c1ccc(-c2ccccc2)cc1` [Compound 14, N-(4-phenylbenzoyl)serine], the activity at 100 µM was found to be 75%.
`CCOC(=O)[C@H](CO)NC(=O)c1ccc(C)cc1` [Compound 17, N-(p-methylbenzoyl)serine ethyl ester]: the activity at 100 µM is 73.6%.
Same read-out and setting: the value for `Cc1ccc(C(=O)NC(CO)C(=O)O)cc1` (racemic) [Compound 3, N-(p-methylbenzoyl)serine] was 61.6%; that for `NC[C@H]1CC[C@H](C(=O)O)CC1` [Tranexamic acid, tranexamic acid, reference compound] was 82%; that for `COc1ccc(C(=O)N[C@@H](CO)C(=O)O)cc1` [Compound 5, N-(p-methoxybenzoyl)serine] was 63.4%.
As for `O=C(N[C@@H](CO)C(=O)O)c1ccc2ccccc2c1` [Compound 10, N-(2-naphthoyl)serine], the activity at 100 µM amounted to 82.4%.
On to `O=C(N[C@@H](CO)C(=O)O)c1ccccc1` [Compound 2, N-benzoyl-serine], for which the activity at 100 µM was determined as 60.9%.
The same measure, in the same setting: the same measure for `CC(=O)OC[C@H](NC(=O)c1ccc(C)cc1)C(=O)O` [Compound 11, N-(p-methylbenzoyl)-O-acetylserine]: 71.8%; for `COCC(NC(=O)c1ccc2ccccc2c1)C(=O)O` (racemic) [Compound 13, N-(2-naphthoyl)-O-methylserine]: 80.3%; for `O=C(N[C@@H](CO)C(=O)O)c1ccc(F)cc1` [Compound 4, N-(p-fluorobenzoyl)serine]: 55.3%.
Same read-out and setting: the same measure for `Cc1ccc(C(=O)NC(CO)C(=O)O)cc1` (stereo not drawn) [Compound 15, N-(p-methylbenzoyl)serine]: 60.2%; for `COCC(NC(=O)c1ccc(C)cc1)C(=O)O` (racemic) [Compound 9, N-(p-methylbenzoyl)-O-methylserine]: 62.3%.
For the compound `O=C(N[C@@H](CO)C(=O)O)c1ccc(C(F)(F)F)cc1` [Compound 8, N-(p-trifluoromethylbenzoyl)serine], the activity at 100 µM turned out to be 53.9%.
The same measure, in the same setting: the value for `COCC(NC(=O)c1ccccc1)C(=O)O` (racemic) [Compound 16, N-benzoyl-O-methylserine] was 65.5%; that for `Cc1ccc(C(=O)N[C@@H](CO)C(=O)O)cc1` [Compound 1, N-(p-methylbenzoyl)-L-serine] was 57%; that for `CCc1ccc(C(=O)N[C@@H](CO)C(=O)O)cc1` [Compound 7, N-(p-ethylbenzoyl)serine] was 65.1%.
`COC(=O)[C@H](CO)NC(=O)c1ccc2ccccc2c1` [Compound 12, N-(2-naphthoyl)serine methyl ester]: the activity at 100 µM is 83.1%.

The test system of a further assay is pigmented guinea pigs. Description: Ultraviolet ray-induced pigmentation inhibition test using pigmented guinea pigs. Conditions: 3% (w/v) in ethanol, 30 μL once a day for 5 weeks; L* on 36th day minus L* before ultraviolet radiation; average ± standard deviation of 8 samples; solvent control −11.83 ± 0.78. It counts as in vivo, guinea pig. From the text:
Skins of backs of eight pigmented guinea pigs were subjected to the hair removal and the hair shaving with electric hair clippers and shaver, and these sites were covered with black cloths each having four radiation windows of 2×2 cm in total disposed at two upper left and right positions and two lower left and right positions respectively. After that, the ultraviolet ray was radiated at 300 mJ/cm^2 by using FL20S•E30 lamp as the light source. This operation was repeatedly performed on 1st, 3rd, 5th, and 8th days of the test to induce the pigmentation at the four test sites. The compound to be evaluated (Compound 1) was dissolved and prepared in ethanol so that the concentration was 3% (w/v). Ethanol was applied as the solvent control group. The application of each of the compounds to be evaluated was started from the time of completion of the ultraviolet radiation on the 1st day of the test. Each of the compounds to be evaluated was applied in an amount of 30 μL once a day to the predetermined test sites, and this procedure was continuously carried out for 5 weeks (until 35th day of the test). […]
For the compound `Cc1ccc(C(=O)N[C@@H](CO)C(=O)O)cc1` [Compound 1, N-(p-methylbenzoyl)-L-serine], the “ΔL* value” was −9.98 ± 0.71.
